These results are taken from patent publication US8273774B2, “Phenoxypyridinylamide compounds” (AstraZeneca AB, priority 2008, dated 2012).

Chain of recombinant Human Phosphodiesterase B2 (PDE4B2) (Q07343 1-564 isoform Q07343-2): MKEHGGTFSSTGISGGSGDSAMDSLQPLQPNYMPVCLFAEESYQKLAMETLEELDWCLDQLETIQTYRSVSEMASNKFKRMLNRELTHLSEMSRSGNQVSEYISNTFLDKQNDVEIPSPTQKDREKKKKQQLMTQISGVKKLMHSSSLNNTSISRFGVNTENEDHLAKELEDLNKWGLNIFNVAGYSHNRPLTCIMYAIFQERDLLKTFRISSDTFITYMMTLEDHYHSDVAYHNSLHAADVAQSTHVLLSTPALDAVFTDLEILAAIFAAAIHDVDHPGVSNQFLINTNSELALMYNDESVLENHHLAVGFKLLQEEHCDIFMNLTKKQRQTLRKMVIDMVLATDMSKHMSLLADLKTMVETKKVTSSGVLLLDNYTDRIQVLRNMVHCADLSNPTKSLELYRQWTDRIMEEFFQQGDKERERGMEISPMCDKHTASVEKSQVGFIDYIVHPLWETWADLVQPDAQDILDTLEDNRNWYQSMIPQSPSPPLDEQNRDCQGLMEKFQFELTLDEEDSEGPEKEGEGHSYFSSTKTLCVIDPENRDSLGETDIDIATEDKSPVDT

This assay addresses recombinant Human Phosphodiesterase B2 (PDE4B2) (Homo sapiens, UniProt Q07343). As to the kind of experiment: Human Phosphodiesterase B2 Radiometric Assay. Type of assay: biochemical. As to conditions: 0.1 μg/mL recombinant PDE4B2; preincubated at 30 C for 30 min; [3H]cyclic AMP 8 nM, stopped after 20 min; yttrium silicate SPA beads; read-out: PDE4B2 pIC50 (converted). A digest of the protocol:
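Compounds preincubated 30 min at 30 C with 0.1 μg/mL recombinant PDE4B2 in 50 mM HEPES pH 7.5, 8.3 mM MgCl2, 1.7 mM EGTA, 0.01% Brij 35.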
Take `Cc1nc(C(=O)N[C@H]2CC[C@@H](NC(=O)c3cc(F)cnc3Oc3cccc(-c4ccc(O)cc4CN4CCOCC4)c3)CC2)cs1` [Example 34, N-((1s,4s)-4-(5-fluoro-2-(4′-hydroxy-2′-(morpholinomethyl)biphenyl-3-yloxy)nicotinamido)cyclohexyl)-2-methylthiazole-4-carboxamide]: the IC50 is 0.0251 nM.

As for `Cc1cccc2nc(C(=O)N[C@H]3CC[C@@H](NC(=O)c4cc(F)cnc4Oc4cccc(-c5ccc(O)cc5CN(C)C)c4)CC3)cn12` [Example 11, N-((1s,4s)-4-(2-(2′-((dimethylamino)methyl)-4′-hydroxybiphenyl-3-yloxy)-5-fluoronicotinamido)cyclohexyl)-5-methylimidazo[1,2-a]pyridine-2-carboxamide], the IC50 was 0.0501 nM.

`CN1CCCN(CCc2ccc(-c3cccc(Oc4ncc(F)cc4C(=O)N[C@H]4CC[C@@H](NC(=O)c5cc6n(n5)CCCC6)CC4)c3)cc2)CC1` [Example 171, N-((1s,4s)-4-(5-Fluoro-2-(4′-(2-(4-methyl-1,4-diazepan-1-yl)ethyl)biphenyl-3-yloxy)nicotinamido)cyclohexyl)-4,5,6,7-tetrahydropyrazolo[1,5-a]pyridine-2-carboxamide]: the IC50 is 0.0794 nM.

Consider `Cc1cccc2nc(C(=O)N[C@H]3CC[C@@H](NC(=O)c4cc(F)cnc4Oc4cccc(-c5ccc(CN(C)CCO)cc5)c4)CC3)cn12` [Example 51, N-((1s,4s)-4-(5-fluoro-2-(4′-(((2-hydroxyethyl)(methyl)amino)methyl)biphenyl-3-yloxy)nicotinamido)cyclohexyl)-5-methylimidazo[1,2-a]pyridine-2-carboxamide], for which the IC50 is 0.1 nM.

`Cc1cc(C(=O)N[C@H]2CC[C@@H](NC(=O)c3cc(F)cnc3Oc3cccc(-c4ccc(CCN5CCN(C)CC5)cc4)c3)CC2)nn1C` [Example 167, N-((1s,4s)-4-(1,5-Dimethyl-1H-pyrazole-3-carboxamido)cyclohexyl)-5-fluoro-2-(4′-(2-(4-methylpiperazin-1-yl)ethyl)biphenyl-3-yloxy)nicotinamide]: the IC50 is 0.0501 nM.

For `Cc1cccc2nc(C(=O)N[C@H]3CC[C@@H](NC(=O)c4cc(F)cnc4Oc4cccc(-c5ccc(O)cc5CN5CCOCC5)c4)CC3)cn12` [Example 18, N-((1s,4s)-4-(5-fluoro-2-(4′-hydroxy-2′-(morpholinomethyl)biphenyl-3-yloxy)nicotinamido)cyclohexyl)-5-methylimidazo[1,2-a]pyridine-2-carboxamide], the IC50 is 0.0158 nM.

On to `C[C@@H]1CN(Cc2ccc(-c3cccc(Oc4ncc(F)cc4C(=O)N[C@H]4CC[C@@H](NC(=O)c5cc6n(n5)CCCC6)CC4)c3)cc2)C[C@H](C)N1` [Example 113, N-((1s,4s)-4-(2-(4′-(((3S,5R)-3,5-dimethylpiperazin-1-yl)methyl)biphenyl-3-yloxy)-5-fluoronicotinamido)cyclohexyl)-4,5,6,7-tetrahydropyrazolo[1,5-a]pyridine-2-carboxamide], for which the IC50 is 0.0501 nM.

With `C[C@@H]1CN(Cc2ccc(-c3cccc(Oc4ncc(F)cc4C(=O)N[C@H]4CC[C@@H](NC(=O)c5cn6cc(F)ccc6n5)CC4)c3)c(CN3CCOCC3)c2)C[C@H](C)N1` [Example 122, N-((1s,4s)-4-(2-(4′-(((3S,5R)-3,5-dimethylpiperazin-1-yl)methyl)-2′-(morpholinomethyl)biphenyl-3-yloxy)-5-fluoronicotinamido)cyclohexyl)-6-fluoroimidazo[1,2-a]pyridine-2-carboxamide], the IC50 was 0.0398 nM.

On to `C[C@@H]1CN(CCc2ccc(-c3cccc(Oc4ncc(F)cc4C(=O)N[C@H]4CC[C@@H](NC(=O)c5cc6n(n5)CCCC6)CC4)c3)cc2)C[C@H](C)N1` [Example 162, N-((1s,4s)-4-(2-(4′-(2-((3S,5R)-3,5-Dimethylpiperazin-1-yl)ethyl)biphenyl-3-yloxy)-5-fluoronicotinamido)cyclohexyl)-4,5,6,7-tetrahydropyrazolo[1,5-a]pyridine-2-carboxamide], for which the IC50 is 0.0398 nM.

As to `C[C@@H]1CN(Cc2ccc(-c3cccc(Oc4ncc(F)cc4C(=O)N[C@H]4CC[C@@H](NC(=O)c5cccc6[nH]cnc56)CC4)c3)c(CN3CCOC[C@@H]3C)c2)C[C@H](C)N1` [Example 195, N-((1s,4s)-4-(2-(4′-(((3S,5R)-3,5-dimethylpiperazin-1-yl)methyl)-2′-(((S)-3-methylmorpholino)methyl)biphenyl-3-yloxy)-5-fluoronicotmamido)cyclohexyl)-1H-benzo[d]imidazole-4-carboxamide], the IC50 was 0.02 nM.

Take `O=C(N[C@H]1CC[C@@H](NC(=O)c2cc(F)cnc2Oc2cccc(-c3ccc(O)cc3CN3CCCOCC3)c2)CC1)c1cn2cc(F)ccc2n1` [Example 13, N-((1s,4s)-4-(2-(2′-((1,4-oxazepan-4-yl)methyl)-4′-hydroxybiphenyl-3-yloxy)-5-fluoronicotinamido)cyclohexyl)-6-fluoroimidazo[1,2-a]pyridine-2-carboxamide]: the IC50 was 0.02 nM.

In the case of `C[C@@H]1CN(Cc2ccc(-c3cccc(Oc4ncc(F)cc4C(=O)N[C@H]4CC[C@@H](NC(=O)c5cc(C(F)(F)F)n(C)n5)CC4)c3)c(CN3CCSCC3)c2)C[C@H](C)N1` [Example 191, 2-(4′-(((3S,5R)-3,5-dimethylpiperazin-1-yl)methyl)-2′-(thiomorpholinomethyl)biphenyl-3-yloxy)-5-fluoro-N-((1s,4s)-4-(1-methyl-5-(trifluoromethyl)-1H-pyrazole-3-carboxamido)cyclo-hexyl)nicotinamide], the IC50 was 0.02 nM.

Turning to `Cc1nc(CN[C@H]2CC[C@@H](NC(=O)c3cc(F)cnc3Oc3cccc(-c4ccc(O)cc4CN4CCOCC4)c3)CC2)cs1` [Example 5, 5-fluoro-2-(4′-hydroxy-2′-(morpholinomethyl)biphenyl-3-yloxy)-N-((1s,4s)-4-((2-methylthiazol-4-yl)methylamino)cyclohexyl)nicotinamide], the IC50 is 5.01 nM.

As to `Cc1nc(C(=O)N[C@H]2CC[C@@H](NC(=O)c3cc(F)cnc3Oc3cccc(-c4cc(O)cc(CN5C[C@@H](C)N[C@@H](C)C5)c4)c3)CC2)cs1` [Example 65, N-((1s,4s)-4-(2-(3′-(((3R,5S)-3,5-dimethylpiperazin-1-yl)methyl)-5′-hydroxybiphenyl-3-yloxy)-5-fluoronicotinamido)cyclohexyl)-2-methylthiazole-4-carboxamide], the IC50 was 0.0398 nM.

With `Cc1csc(C(=O)N[C@H]2CC[C@@H](NC(=O)c3cc(F)cnc3Oc3cccc(-c4ccc(O)cc4CN4CCOCC4)c3)CC2)n1` [Example 45, N-((1s,4s)-4-(5-fluoro-2-(4′-hydroxy-2′-(morpholinomethyl)biphenyl-3-yloxy)nicotinamido)cyclohexyl)-4-methylthiazole-2-carboxamide], the IC50 is 0.0158 nM.

With `Cc1csc(C(=O)N[C@H]2CC[C@@H](NC(=O)c3cc(F)cnc3Oc3cccc(-c4ccc(CCCN5CCNCC5)cc4)c3)CC2)n1` [Example 148, N-((1s,4s)-4-(5-fluoro-2-(4′-(3-(piperazin-1-yl)propyl)biphenyl-3-yloxy)nicotinamido)cyclohexyl)-4-methylthiazole-2-carboxamide], the IC50 is 0.0398 nM.

As for `Cc1cccc2nc(C(=O)N[C@H]3CC[C@@H](NC(=O)c4cc(F)cnc4Oc4cccc(-c5cccc(CN6CCNCC6)c5)c4)CC3)cn12` [Example 100, N-((1s,4s)-4-(5-fluoro-2-(3′-(piperazin-1-ylmethyl)biphenyl-3-yloxy)nicotinamido)cyclohexyl)-5-methylimidazo[1,2-a]pyridine-2-carboxamide], the IC50 was 0.158 nM.

`C[C@@H]1CN(CCCc2cccc(-c3cccc(Oc4ncc(F)cc4C(=O)N[C@H]4CC[C@@H](NC(=O)c5cc6n(n5)CCCC6)CC4)c3)c2)C[C@H](C)N1` [Example 174, N-((1s,4s)-4-(2-(3′-(3-((3S,5R)-3,5-Dimethylpiperazin-1-yl)propyl)biphenyl-3-yloxy)-5-fluoronicotinamido)cyclohexyl)-4,5,6,7-tetrahydropyrazolo[1,5-a]pyridine-2-carboxamide]: the IC50 was 0.1 nM.

Regarding `CN(C)Cc1cc(O)ccc1-c1cccc(Oc2ncc(F)cc2C(=O)N[C@H]2CC[C@@H](NC(=O)c3cn4cc(F)ccc4n3)CC2)c1` [Example 12, N-((1s,4s)-4-(2-(2′-((dimethylamino)methyl)-4′-hydroxybiphenyl-3-yloxy)-5-fluoronicotinamido)cyclohexyl)-6-fluoroimidazo[1,2-a]pyridine-2-carboxamide], the IC50 was 0.0501 nM.

For `Cc1nc(C(=O)N[C@H]2CC[C@@H](NC(=O)c3cc(F)cnc3Oc3cccc(-c4cccc(CN5C[C@@H](C)N[C@@H](C)C5)c4O)c3)CC2)cs1` [Example 69, N-((1s,4s)-4-(2-(3′-(((3R,5S)-3,5-dimethylpiperazin-1-yl)methyl)-2′-hydroxybiphenyl-3-yloxy)-5-fluoronicotinamido)cyclohexyl)-2-methylthiazole-4-carboxamide], the IC50 is 0.398 nM.

Consider `Cc1cccc2nc(C(=O)N[C@H]3CC[C@@H](NC(=O)c4cc(F)cnc4Oc4cccc(-c5ccc(O)c(CN6C[C@@H](C)N[C@@H](C)C6)c5)c4)CC3)cn12` [Example 85, N-((1s,4s)-4-(2-(3′-(((3S,5R)-3,5-dimethylpiperazin-1-yl)methyl)-4′-hydroxybiphenyl-3-yloxy)-5-fluoronicotinamido)cyclohexyl)-5-methylimidazo[1,2-a]pyridine-2-carboxamide], for which the IC50 was 0.0631 nM.

As for `Cc1nc(C(=O)N[C@H]2CC[C@@H](NC(=O)c3cc(F)cnc3Oc3cccc(-c4ccc(CN(C)C)cc4CN4CCOCC4)c3)CC2)cs1` [Example 119, N-((1s,4s)-4-(2-(4′-((dimethylamino)methyl)-2′-(morpholinomethyl)biphenyl-3-yloxy)-5-fluoronicotinamido)cyclohexyl)-2-methylthiazole-4-carboxamide], the IC50 was 0.0794 nM.
